According to paper PMC7160673, “A Degenerate Peptide Library Approach to Reveal Sequence Determinants of Methyllysine-Driven Protein Interactions” (Frontiers in Cell and Developmental Biology, 2020):

Legend:
Format in all cases: binding
[1] = test system: Abcam #ab8895, anti-H3K4me1; assay: Histone peptide microarray, Abcam ab8895; settings: Abcam ab8895 (anti-H3K4me1) hits, average signal per peptide
Method: (§1) Peptide microarrays were fabricated using an Aushon 2470 microarrayer and used as described ([Cornett et al., 2017]) with the following modifications. Protein and antibody hybridization steps were performed in buffer containing 25 mM HEPES pH 7.5, 100 mM NaCl, 0.5% BSA (w/v), and 0.1% NP-40. Slides were washed 3 × 5 min in PBS supplemented with 0.1% Tween-20 between each hybridization step. Antibodies used were primary anti-GST (Sigma #7781, 1:2,000 dilution) and an AlexaFluor 647-labeled secondary antibody (Life Technologies A-21245, 1:5,000 dilution). […] Full lists of peptides queried by array analysis are in Supplementary Table S2.

53BP1 TTD = assay: Histone peptide microarray, 53BP1 TTD; settings: 53BP1 TTD hits, average signal per peptide
Method: as §1

[2] = test system: Active Motif #39161, anti-H3K9me3; assay: Histone peptide microarray, Active Motif 39161; settings: Active Motif 39161 (anti-H3K9me3) hits
Method: as §1

CST 9733 (anti-H3K27me3) = assay: Histone peptide microarray, CST 9733; settings: histone peptide array signal normalized to the highest peptide average per subarray, hits; CST 9733 LOT:14 dilution 1:5,000
Method: as §1

[3] = test system: Millipore #07-449, anti-H3K27me3; assay: Histone peptide microarray, Millipore 07-449; settings: Millipore 07-449 (anti-H3K27me3) hits, average signal per peptide
Method: as §1

## AR(Me2a)TK(Ac)QTARK(Ac)STGGK(Ac)APRK(Ac)QL-K(Biot)-NH2 [H3.1R2me2aK4acK9acK14acK18ac]
[1]
  Avg Signal: 0.0001948
53BP1 TTD
  Avg Signal: 0.1712
[2]
  Avg Signal: 0.00047

## ARTK(Ac)QTARKSTGGK(Ac)APRKQL-K(Biot)-NH2 [H3.1K4acK14ac]
[1]
  Avg Signal: 0.001132
53BP1 TTD
  Avg Signal: 0.2064
[2]
  Avg Signal: 0.0007938

## ARTK(Me3)QTARKST-Peg-Biot [H3.1K4me3 H3.1(1-11)]
CST 9733 (anti-H3K27me3)
  Avg Signal: 1.495e-5

## ARTK(Me3)QTARKSTGGKAPRKQL-K(Biot)-NH2 [H3.1K4me3 H3.1(1-20)]
CST 9733 (anti-H3K27me3)
  Avg Signal: 0.001817

## ARTKQTARK(Ac)STGGKAPRK(Ac)QL-K(Biot)-NH2 [H3.1K9acK18ac]
[1]
  Avg Signal: 0.2595
53BP1 TTD
  Avg Signal: 0.0364
[2]
  Avg Signal: 0.0006444
[3]
  Avg Signal: 0.006063

## ARTKQTARK(Ac)STGGKAPRKQL-K(Biot)-NH2 (not fully specified; K9 acetyl; K(Biot)-NH2) [Peptide H3.1K9ac]
[1]
  Avg Signal: 0.168
53BP1 TTD
  Avg Signal: 0.1022
[2]
  Avg Signal: 0.0003455

## ARTKQTARK(Me2)pSTGGKAPRKQL-K(Biot)-NH2 [H3.1K9me2S10p]
[1]
  Avg Signal: 0.1568
53BP1 TTD
  Avg Signal: 0.3509

## ARTKQTARK(Me)pSTGGKAPRKQL-K(Biot)-NH2 [H3.1K9me1S10p]
[1]
  Avg Signal: 0.1234
53BP1 TTD
  Avg Signal: 0.1506

## ARTKQTARKSTGGK(Ac)APRK(Ac)QL-K(Biot)-NH2 [H3.1K14acK18ac]
[1]
  Avg Signal: 0.1741
53BP1 TTD
  Avg Signal: 0.1587

## ARTKQTARKpSTGGKAPRKQL-K(Biot)-NH2 [Peptide H3.1S10p]
[1]
  Avg Signal: 0.06974
53BP1 TTD
  Avg Signal: 0.0218
[3]
  Avg Signal: 0.004546

## ARTKQpTARKSTGGKAPRKQL-K(Biot)-NH2 [Peptide H3.1T6p]
[1]
  Avg Signal: 0.0003583
53BP1 TTD
  Avg Signal: 0.07045
[2]
  Avg Signal: 0.0005946

## ATKAARKSAPATGGVK(Me3)KPHRYRPG-GK(Biotin)-OH [H3.1K36me3 H3.1(21-44)]
CST 9733 (anti-H3K27me3)
  Avg Signal: 0.0006093

## Ac-APRKQLATKAARK(Me)SAPSTGG--Peg-Biot [Peptide H3.3K27me1]
[1]
  Avg Signal: 0.01351
53BP1 TTD
  Avg Signal: 0.1127
[3]
  Avg Signal: 0.003394

## Ac-GK(Ac)GGAK(Ac)RHRK(Me2)VLRDNIQ-Peg-Biot [H4K12acK16acK20me2]
CST 9733 (anti-H3K27me3)
  Avg Signal: 0.0001487

## Ac-GKGGAKRHRK(Me)VLRDNIQ-Peg-Biot [Peptide H4K20me1]
[1]
  Avg Signal: 0.003452
53BP1 TTD
  Avg Signal: 0.5244
[2]
  Avg Signal: 7.157e-5

## Ac-SGR(Me2a)GK(Ac)QGGKARAKAKTR-Peg-Biot [H2AR3me2aK5ac]
[1]
  Avg Signal: 0.0107
53BP1 TTD
  Avg Signal: 0.03444
[2]
  Avg Signal: 0.03211

## Ac-SGRGK(Ac)GGK(Ac)GLGK(Ac)GGAK(Ac)RHRKVLR-Peg-Biot [H4K5acK8acK12acK16ac]
[1]
  Avg Signal: 0.005523
53BP1 TTD
  Avg Signal: 0.1158

## Ac-SGRGK(Ac)GGKGLGKGGAKRHRKVLR-Peg-Biot [Peptide H4K5ac]
[1]
  Avg Signal: 0.0009033
53BP1 TTD
  Avg Signal: 0.009315
[2]
  Avg Signal: 0.04019

## Ac-SGRGKGGK(Ac)GLGKGGAK(Ac)RHRKVLR-Peg-Biot [Peptide H4K8acK16ac]
[1]
  Avg Signal: 0.002102
53BP1 TTD
  Avg Signal: 0.2331
[2]
  Avg Signal: 0.003751

## Ac-SGRGKGGK(Ac)GLGKGGAKRHRKVLR-Peg-Biot [Peptide H4K8ac]
[1]
  Avg Signal: 0.01217
53BP1 TTD
  Avg Signal: 0.08696
[2]
  Avg Signal: 0.001167

## Ac-pSGCitGK(Ac)QGGKARAKAKTR-Peg-Biot [H2AS1pCit3K5ac]
[1]
  Avg Signal: 0.004421
53BP1 TTD
  Avg Signal: 0.04418
[2]
  Avg Signal: 0.0032
[3]
  Avg Signal: 0.006425

## PEPAK(Me)SAPAPKKGSKKAVTKAQKK-Peg-Biot [Peptide H2BK5me1]
[1]
  Avg Signal: 0.004522
53BP1 TTD
  Avg Signal: 0.1012
[2]
  Avg Signal: 0.004346
[3]
  Avg Signal: 0.01581

## pSGRGK(Ac)QGGK(Ac)ARAK(Ac)AK(Ac)TR-Peg-Biot [H2AS1pK5acK9acK13acK15ac(noN-ac)]
[1]
  Avg Signal: 0.0006853
53BP1 TTD
  Avg Signal: 0.06769
[3]
  Avg Signal: 0.001023
